ChEMBL document CHEMBL1149192, “Mechanism of inactivation of beta-lactamases by novel 6-methylidene penems elucidated using electrospray ionization mass spectrometry” (J Med Chem, 2004)

Assays:
Beta-lactamase TEM = Beta-lactamase TEM (Escherichia coli, UniProt P62593); assay: In vitro inhibitory activity against Class A (TEM-1) beta-Lactamases
Beta-lactamase = Beta-lactamase (Escherichia coli K-12, UniProt P00811)
Description: In vitro inhibitory activity against Class C (Amp-C) beta-Lactamases

[1] = target: Metallo-beta-lactamase type 2 (Bacteroides fragilis, UniProt P25910); assay: In vitro inhibitory activity against Class B (CCRA) beta-Lactamases
IMI-1 = IMI-1 (Enterobacter cloacae, UniProt Q46991); assay: In vitro inhibitory activity against Class A (Imi-1) beta-Lactamases
IMI-1, sequence (Q46991 whole entry): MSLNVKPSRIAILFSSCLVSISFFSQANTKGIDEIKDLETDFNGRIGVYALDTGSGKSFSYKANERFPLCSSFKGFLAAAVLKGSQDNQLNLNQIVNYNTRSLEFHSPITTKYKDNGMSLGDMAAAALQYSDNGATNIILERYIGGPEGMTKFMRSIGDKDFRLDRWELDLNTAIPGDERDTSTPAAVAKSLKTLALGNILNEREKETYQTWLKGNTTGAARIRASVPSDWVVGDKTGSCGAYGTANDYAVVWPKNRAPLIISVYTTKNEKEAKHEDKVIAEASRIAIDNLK

Beta-lactamase TEM, sequence (P62593 whole entry): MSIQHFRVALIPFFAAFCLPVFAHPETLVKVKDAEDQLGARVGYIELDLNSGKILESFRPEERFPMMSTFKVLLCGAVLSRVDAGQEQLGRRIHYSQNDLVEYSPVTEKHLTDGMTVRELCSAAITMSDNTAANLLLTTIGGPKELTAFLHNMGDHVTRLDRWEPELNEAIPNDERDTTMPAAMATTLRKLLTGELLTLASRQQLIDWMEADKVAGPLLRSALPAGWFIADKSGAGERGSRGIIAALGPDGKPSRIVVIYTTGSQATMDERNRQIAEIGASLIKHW
Beta-lactamase, sequence (P00811 whole entry): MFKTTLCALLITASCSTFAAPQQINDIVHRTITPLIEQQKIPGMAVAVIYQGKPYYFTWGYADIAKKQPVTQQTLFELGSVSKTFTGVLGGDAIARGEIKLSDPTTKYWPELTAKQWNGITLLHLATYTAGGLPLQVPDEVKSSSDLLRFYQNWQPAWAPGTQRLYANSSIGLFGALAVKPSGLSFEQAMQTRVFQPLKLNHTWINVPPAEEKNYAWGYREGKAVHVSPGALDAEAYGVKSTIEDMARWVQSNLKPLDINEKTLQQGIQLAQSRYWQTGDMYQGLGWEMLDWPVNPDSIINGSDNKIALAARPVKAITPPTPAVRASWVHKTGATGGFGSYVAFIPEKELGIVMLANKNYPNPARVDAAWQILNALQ
Metallo-beta-lactamase type 2, sequence (P25910 whole entry): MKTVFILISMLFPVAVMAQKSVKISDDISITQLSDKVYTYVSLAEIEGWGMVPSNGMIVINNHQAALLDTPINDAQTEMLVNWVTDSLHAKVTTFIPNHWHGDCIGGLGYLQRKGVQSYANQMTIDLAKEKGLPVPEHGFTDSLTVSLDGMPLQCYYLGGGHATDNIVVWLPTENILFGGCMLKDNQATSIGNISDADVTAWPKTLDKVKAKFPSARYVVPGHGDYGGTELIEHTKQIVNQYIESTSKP

Which results are given for O=C(O)C1=CS[C@@H]2/C(=C\c3cn4c5c(sc4n3)CCC5)C(=O)N12?
IC50 (Beta-lactamase TEM): 1 nM; IC50 (Beta-lactamase): 2 nM

For O=C(O)C1=CS[C@@H]2/C(=C\c3cc4n(n3)CCC4)C(=O)N12, which IC50 (Beta-lactamase TEM) is on record?
Its IC50 is 1 nM.

And the IC50 (Beta-lactamase)?
Its IC50 is 2 nM.

What does the source list for O=C(O)C1=CS[C@@H]2/C(=C\c3cnc4n3CCOC4)C(=O)N12?
IC50 [1]: 66 nM; IC50 (Beta-lactamase TEM): 0.4 nM; IC50 (IMI-1): 8 nM; IC50 (Beta-lactamase): 5 nM

What does the source list for O=C(O)C1=CS[C@@H]2/C(=C\c3cnc4n3CCNC4)C(=O)N12?
IC50 [1]: 320 nM; IC50 (Beta-lactamase TEM): 5 nM; IC50 (IMI-1): 28 nM; IC50 (Beta-lactamase): 6 nM
